Experimental data: patent US10947188B2, “Small molecule ferroptosis inducers” (THE TRUSTEES OF COLUMBIA UNIVERSITY IN THE CITY OF NEW YORK, priority 2016, dated 2021)

Assays:
HT-1080 = assay: Modulatory profiling: Alamar Blue viability, lethal compound cotreated with death modulator (EC50, AUC); type: cell-based; parameters: AUC, modulator HT.3MA / AUC, modulator HT.ALLN / AUC HT.ATA / AUC HT.ActD / AUC HT.BHA / AUC HT.BHT / AUC HT.BocD / AUC HT.CHX / AUC HT.Co2+ / AUC HT.DPQ / AUC HT.EGTA / AUC HT.Lmim / AUC HT.NAD+ / AUC HT.Nec-1 / AUC HT.SP600125 / AUC HT.TLCK / AUC HT.U0126: unit not given beside the values; details: for AUC HT.ATA: HT-1080, modulator ATA; for AUC HT.ActD: HT-1080, modulator ActD; for AUC HT.BHA: HT-1080, modulator BHA; for AUC HT.BHT: HT-1080, modulator BHT; for AUC HT.BocD: HT-1080, modulator BocD; for AUC HT.CHX: HT-1080, modulator CHX; for AUC HT.Co2+: HT-1080, modulator Co2+; for AUC HT.CspA: HT-1080, modulator CspA; for AUC HT.DPQ: HT-1080, modulator DPQ; for AUC HT.EGTA: HT-1080, modulator EGTA; for AUC HT.Gd3+: HT-1080, modulator Gd3+; for AUC HT.LNAME: HT-1080, modulator LNAME; for AUC HT.Lmim: HT-1080, modulator Lmim; for AUC HT.NAD+: HT-1080, modulator NAD+; for AUC HT.NMMA: HT-1080, modulator NMMA; for HT.atoc (AUC) / HT.bCarotene (AUC) / HT.deferox (AUC) / HT.digoxin (AUC) / HT.trolox (AUC) / HT.zVAD (AUC): HT-1080; for HT.atoc (AUC): modulator atoc; for HT.bCarotene (AUC): modulator bCarotene; for HT.deferox (AUC): modulator deferox; for HT.digoxin (AUC): modulator digoxin; for HT.trolox (AUC): modulator trolox; for HT.zVAD (AUC): modulator zVAD; for AUC HT.BHA: reference of the scale not given here; for AUC HT.EGTA: reference of the scale not given here
BJeLR = assay: as above; type: cell-based, human; parameters: AUC, modulator BJ.Gd3+ / AUC, modulator BJ.LNAME / AUC, modulator BJ.Lmin / AUC, modulator BJ.3MA / AUC, modulator BJ.ALLN / AUC, modulator BJ.Boc D / AUC, modulator BJ.CHX / AUC, modulator BJ.Co2+ / AUC, modulator BJ.Nec-1 / AUC, modulator BJ.Pepstatin / AUC, modulator BJ.TLCK / AUC, modulator BJ.atoc / AUC, modulator BJ.trolox / AUC, modulator BJ.zVAD: unit not given beside the values; details: BJeLR cells, modulatory profile value (AUC); for AUC, modulator BJ.3MA: lethal compound cotreated with modulator 3MA; for AUC, modulator BJ.ALLN: lethal compound cotreated with modulator ALLN; for AUC, modulator BJ.Boc D: lethal compound cotreated with modulator Boc D; for AUC, modulator BJ.CHX: lethal compound cotreated with modulator CHX; for AUC, modulator BJ.Co2+: lethal compound cotreated with modulator Co2+; for AUC, modulator BJ.DPQ: lethal compound cotreated with modulator DPQ; for AUC, modulator BJ.Gd3+: lethal compound cotreated with modulator Gd3+; for AUC, modulator BJ.LNAME: lethal compound cotreated with modulator LNAME; for AUC, modulator BJ.Lmin/NAD+: lethal compound cotreated with modulator Lmin/NAD+; for AUC, modulator BJ.Lmin: lethal compound cotreated with modulator Lmin; for AUC, modulator BJ.NAD+: lethal compound cotreated with modulator NAD+; for AUC, modulator BJ.NMMA: lethal compound cotreated with modulator NMMA; for AUC, modulator BJ.Nec-1: lethal compound cotreated with modulator Nec-1; for AUC, modulator BJ.Pepstatin: lethal compound cotreated with modulator Pepstatin; for AUC, modulator BJ.TLCK: lethal compound cotreated with modulator TLCK; for AUC, modulator BJ.3MA: reference of the scale not given here; for AUC, modulator BJ.ALLN: reference of the scale not given here; for AUC, modulator BJ.Boc D: reference of the scale not given here; for AUC, modulator BJ.CHX: reference of the scale not given here; for AUC, modulator BJ.Co2+: reference of the scale not given here; for AUC, modulator BJ.DPQ: reference of the scale not given here; for AUC, modulator BJ.Gd3+: reference of the scale not given here; for AUC, modulator BJ.LNAME: reference of the scale not given here; for AUC, modulator BJ.NAD+: reference of the scale not given here; for AUC, modulator BJ.NMMA: reference of the scale not given here; for AUC, modulator BJ.Nec-1: reference of the scale not given here; for AUC, modulator BJ.Pepstatin: reference of the scale not given here; for AUC, modulator BJ.TLCK: reference of the scale not given here

Structure (SMILES): CC(C)C1CC(CCNCc2ccc3c(c2)OCO3)(c2ccccc2)CCO1 (centres unmarked) [CIL51]
- AUC HT.ATA (HT-1080): 0.003579
- AUC HT.ActD (HT-1080): 0.02697
- AUC HT.BHA (HT-1080): −0.07965
- AUC HT.BHT (HT-1080): −0.08488
- AUC HT.BocD (HT-1080): −0.01458
- AUC HT.CHX (HT-1080): 0.08663
- AUC HT.Co2+ (HT-1080): 0.03908
- AUC HT.CspA (HT-1080): 0.00675
- AUC HT.DPQ (HT-1080): 0.0109
- AUC HT.EGTA (HT-1080): 0.04897
- AUC HT.Gd3+ (HT-1080): 0.003288
- AUC HT.LNAME (HT-1080): 0.01091
- AUC HT.Lmim (HT-1080): 0.01293
- AUC HT.NAD+ (HT-1080): 0.04394
- AUC HT.NMMA (HT-1080): 0.01562
- HT.atoc (AUC) (HT-1080): 0.05135
- HT.bCarotene (AUC) (HT-1080): 0.03796
- HT.deferox (AUC) (HT-1080): 0.004062
- HT.digoxin (AUC) (HT-1080): −0.03821
- HT.trolox (AUC) (HT-1080): −0.01257
- HT.zVAD (AUC) (HT-1080): 0.007799
- AUC, modulator BJ.3MA (BJeLR): 0.05908
- AUC, modulator BJ.ALLN (BJeLR): −0.2032
- AUC, modulator BJ.Boc D (BJeLR): −0.0008828
- AUC, modulator BJ.CHX (BJeLR): 0.1696
- AUC, modulator BJ.Co2+ (BJeLR): 0.06399
- AUC, modulator BJ.DPQ (BJeLR): 0.04077
- AUC, modulator BJ.Gd3+ (BJeLR): 0.03263
- AUC, modulator BJ.LNAME (BJeLR): −0.04145
- AUC, modulator BJ.Lmin/NAD+ (BJeLR): 0.03468
- AUC, modulator BJ.Lmin (BJeLR): −0.07413
- AUC, modulator BJ.NAD+ (BJeLR): −0.01737
- AUC, modulator BJ.NMMA (BJeLR): 0.003016
- AUC, modulator BJ.Nec-1 (BJeLR): 0.03451
- AUC, modulator BJ.Pepstatin (BJeLR): −0.06742
- AUC, modulator BJ.TLCK (BJeLR): −0.04421

Structure (SMILES): C[C@H]1CCC[C@]2(C)C[C@H]3OC(=O)[C@H](CN4CCCC4)[C@H]3C=C12 [CIL80]
- AUC HT.ATA (HT-1080): 0.05781
- AUC HT.ActD (HT-1080): 0.08002
- AUC HT.BHA (HT-1080): 0.009452
- AUC HT.BHT (HT-1080): −0.01971
- AUC HT.BocD (HT-1080): −0.02337
- AUC HT.CHX (HT-1080): 0.09741
- AUC HT.Co2+ (HT-1080): 0.112
- AUC HT.CspA (HT-1080): 0.01161
- AUC HT.DPQ (HT-1080): −0.01717
- AUC HT.EGTA (HT-1080): 0.0199
- AUC HT.Gd3+ (HT-1080): −0.03226
- AUC HT.LNAME (HT-1080): 0.01972
- AUC HT.Lmim (HT-1080): 0.05449
- AUC HT.NAD+ (HT-1080): 0.01251
- AUC HT.NMMA (HT-1080): −0.01256
- HT.atoc (AUC) (HT-1080): 0.004877
- HT.bCarotene (AUC) (HT-1080): 0.003874
- HT.deferox (AUC) (HT-1080): 0.1672
- HT.digoxin (AUC) (HT-1080): 0.06493
- HT.trolox (AUC) (HT-1080): −0.01954
- HT.zVAD (AUC) (HT-1080): 0.03135
- AUC, modulator BJ.3MA (BJeLR): 0.00654
- AUC, modulator BJ.ALLN (BJeLR): −0.004769
- AUC, modulator BJ.Boc D (BJeLR): 0.008783
- AUC, modulator BJ.CHX (BJeLR): 0.1351
- AUC, modulator BJ.Co2+ (BJeLR): 0.09506
- AUC, modulator BJ.DPQ (BJeLR): −0.03368
- AUC, modulator BJ.Gd3+ (BJeLR): 0.01802
- AUC, modulator BJ.LNAME (BJeLR): 0.02901
- AUC, modulator BJ.Lmin/NAD+ (BJeLR): 0.09271
- AUC, modulator BJ.Lmin (BJeLR): 0.01639
- AUC, modulator BJ.NAD+ (BJeLR): −0.008515
- AUC, modulator BJ.NMMA (BJeLR): −3.885E−05
- AUC, modulator BJ.Nec-1 (BJeLR): −0.01593
- AUC, modulator BJ.Pepstatin (BJeLR): 0.03142
- AUC, modulator BJ.TLCK (BJeLR): −0.006094

Structure (SMILES): CCc1ccc(/C=C2/SC(=O)N(CCC(C)NCCCN3CCOCC3)C2=O)cc1 (centres unmarked) [CIL46]
- AUC HT.ATA (HT-1080): 0.0162
- AUC HT.ActD (HT-1080): −0.02916
- AUC HT.BHA (HT-1080): −0.1015
- AUC HT.BHT (HT-1080): −0.1471
- AUC HT.BocD (HT-1080): −0.04371
- AUC HT.CHX (HT-1080): −0.01909
- AUC HT.Co2+ (HT-1080): −0.1082
- AUC HT.CspA (HT-1080): 0.0003356
- AUC HT.DPQ (HT-1080): −0.001692
- AUC HT.EGTA (HT-1080): −0.01699
- AUC HT.Gd3+ (HT-1080): −0.008617
- AUC HT.LNAME (HT-1080): −0.02805
- AUC HT.Lmim (HT-1080): −0.03166
- AUC HT.NAD+ (HT-1080): −0.06754
- AUC HT.NMMA (HT-1080): 0.001557
- HT.atoc (AUC) (HT-1080): 0.04736
- HT.bCarotene (AUC) (HT-1080): −0.01026
- HT.deferox (AUC) (HT-1080): 0.03467
- HT.digoxin (AUC) (HT-1080): −0.04671
- HT.trolox (AUC) (HT-1080): −0.0145
- HT.zVAD (AUC) (HT-1080): 0.01724
- AUC, modulator HT.3MA (HT-1080; HT-1080 cells, lethal compound cotreated with modulator 3MA, modulatory profile value (AUC)): 0.08624
- AUC, modulator HT.ALLN (HT-1080; HT-1080 cells, lethal compound cotreated with modulator ALLN, modulatory profile value (AUC)): 0.03767
- AUC, modulator BJ.3MA (BJeLR): 0.1884
- AUC, modulator BJ.ALLN (BJeLR): −0.01374
- AUC, modulator BJ.Boc D (BJeLR): −0.005903
- AUC, modulator BJ.CHX (BJeLR): 0.1598
- AUC, modulator BJ.Co2+ (BJeLR): −0.1389
- AUC, modulator BJ.DPQ (BJeLR): 0.03979
- AUC, modulator BJ.Gd3+ (BJeLR): −0.05606
- AUC, modulator BJ.LNAME (BJeLR): −0.02185
- AUC, modulator BJ.Lmin/NAD+ (BJeLR): 0.1825
- AUC, modulator BJ.Lmin (BJeLR): 0.2583
- AUC, modulator BJ.NAD+ (BJeLR): −0.02371
- AUC, modulator BJ.NMMA (BJeLR): 0.03363
- AUC, modulator BJ.Nec-1 (BJeLR): 0.08455
- AUC, modulator BJ.Pepstatin (BJeLR): −0.01313
- AUC, modulator BJ.TLCK (BJeLR): −0.09715
- AUC, modulator BJ.atoc (BJeLR; lethal compound cotreated with modulator atoc): 0.1051
- AUC, modulator BJ.trolox (BJeLR; lethal compound cotreated with modulator trolox): 0.04647
- AUC, modulator BJ.zVAD (BJeLR; lethal compound cotreated with modulator zVAD): −0.05153
